Reference: ChEMBL document CHEMBL1146060, “Guanidinylated 2,5-dideoxystreptamine derivatives as anthrax lethal factor inhibitors” (Bioorg Med Chem Lett, 2006)

Molecular target: T1, Lethal factor (Bacillus anthracis, UniProt P15917)
T1 sequence (P15917 whole entry): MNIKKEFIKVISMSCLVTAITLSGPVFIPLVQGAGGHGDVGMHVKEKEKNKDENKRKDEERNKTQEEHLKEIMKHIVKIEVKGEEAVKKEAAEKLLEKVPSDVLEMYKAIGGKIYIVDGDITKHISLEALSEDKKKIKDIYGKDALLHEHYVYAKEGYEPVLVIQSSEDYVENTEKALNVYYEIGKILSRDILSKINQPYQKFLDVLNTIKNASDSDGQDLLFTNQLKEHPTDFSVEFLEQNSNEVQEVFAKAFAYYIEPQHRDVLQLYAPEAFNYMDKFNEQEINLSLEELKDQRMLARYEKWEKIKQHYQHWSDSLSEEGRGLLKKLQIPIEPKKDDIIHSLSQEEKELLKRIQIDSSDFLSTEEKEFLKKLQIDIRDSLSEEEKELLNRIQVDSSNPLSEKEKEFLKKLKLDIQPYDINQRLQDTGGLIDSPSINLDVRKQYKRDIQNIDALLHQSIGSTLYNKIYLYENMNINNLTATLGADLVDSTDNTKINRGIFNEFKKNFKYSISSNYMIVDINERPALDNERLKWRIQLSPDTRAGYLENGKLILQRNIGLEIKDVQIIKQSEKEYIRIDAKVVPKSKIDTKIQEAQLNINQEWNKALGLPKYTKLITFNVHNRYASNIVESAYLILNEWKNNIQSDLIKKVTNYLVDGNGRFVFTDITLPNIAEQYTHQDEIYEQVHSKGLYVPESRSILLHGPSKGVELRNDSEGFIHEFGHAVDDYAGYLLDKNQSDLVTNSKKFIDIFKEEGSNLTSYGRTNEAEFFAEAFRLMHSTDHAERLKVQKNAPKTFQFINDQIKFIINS
Assay: Inhibition of Bacillus anthracis LF by FRET assay
Details: read-out: Ki app

| SMILES | Ki [µM] |
| --- | --- |
| N=C(N)Nc1cc(NC(=N)N)c2ccccc2c1[C@H]1C[C@@H](O)[C@H](NC(=N)N)C[C@@H]1NC(=N)N | 10.7 |
| N=C(N)Nc1ccc([C@H]2C[C@@H](O)[C@H](NC(=N)N)C[C@@H]2NC(=N)N)nc1 | 6.6 |
| N=C(N)Nc1ccc([C@H]2C[C@@H](O)[C@H](NC(=N)N)C[C@@H]2NC(=N)N)cc1 | 14.9 |
| N=C(N)Nc1ccc([C@H]2C[C@@H](O)[C@H](NC(=N)N)C[C@@H]2NC(=N)N)c(NC(=N)N)c1 | 0.6 |
| N=C(N)N[C@H]1C[C@@H](NC(=N)N)[C@H](O)C[C@@H]1c1ccc2[nH]c(N)nc2c1 | 154 |
| Cc1cc(NC(=O)O[C@@H]2C[C@H](Oc3ccc(NC(=N)N)cc3N=C(N)N)[C@@H](N=C(N)N)C[C@H]2N=C(N)N)ccc1F | 0.5 |
| N=C(N)Nc1ccc([C@H]2C[C@@H](O)[C@H](NC(=N)N)C[C@@H]2NC(=N)N)c2ccccc12 | 31.4 |
| N=C(N)Nc1ccccc1NC(=O)O[C@H]1C[C@@H](O)[C@H](NC(=N)N)C[C@@H]1NC(=N)N | 24.8 |
| N=C(N)Nc1cccnc1[C@H]1C[C@@H](O)[C@H](NC(=N)N)C[C@@H]1NC(=N)N | 4.1 |
| N=C(N)Nc1ccccc1[C@H]1C[C@@H](O)[C@H](NC(=N)N)C[C@@H]1NC(=N)N | 30.6 |
| N=C(N)Nc1ccc(O[C@H]2C[C@@H](Oc3ccc(NC(=N)N)cc3NC(=N)N)[C@H](NC(=N)N)C[C@@H]2NC(=N)N)c(NC(=N)N)c1 | 0.065 |
